Reference: US20190070128A1, “USE OF CANNABIDIVARIN IN THE TREATMENT OF AUTISM SPECTRUM DISORDER, ASSOCIATED DISORDERS AND SCHIZOPHRENIA” (GW Research Limited, priority 2016, published 2019)

Assays:
MeCP2 KO mice = test: body weight gain in MeCP2 KO and WT mice; format: in vivo, mouse
Procedure: CBDV was administered daily at the dose of 2, 20 and 200 mg/kg i.p. starting from PND 28 and the following signs were scored every other day: hindlimb clasping (indication of motor imbalance), tremor, gait (measure of coordination), breathing, mobility and general condition.
The CBDV was dissolved in ethanol, cremophor and saline (1:1:18).
Starting from PND 28, mice received a daily intraperitoneal injection of CBDV (or vehicle) at the dose of 2, 20 and 200 mg/kg. Animals were then scored every other day to evaluate the effect of CBDV treatment on motor symptoms (hindlimb clasping, gait, mobility) as well as neurological signs and general conditions (breathing abnormalities, tremors and general condition) present in MeCP2 knockout (KO) mice.

Ube3am-/p+ (AS) mice [1] = test: rotarod test in Angelman syndrome mice; format: in vivo, mouse; details: chronic treatment (30 days), 20 mg/kg i.p., vs AS vehicle
Procedure: (§1) Heterozygous mice with maternal deficiency of Ube3A (Ube3am−/p+) and wild type (Ube3am+/p+) were purchased from The Jackson Laboratory (Jackson code: B6.12957-Ube3a tm1Alb/J) and maintained in a C57BL/6 background.
(§2) Drugs were dissolved in 1:1:18 ethanol:cremophor:0.9% saline, for intraperitoneal (i.p.) administration. Drug treatment was performed daily for 35 days. CBDV was administered at 20 mg/kg.
Rotarod: The rotarod test assesses balance and motor coordination of mice. Mice have been measured for the time (in seconds) of equilibrium before falling on a rotary cylinder by a magnet that, activated from the fall of the mouse on the plate, allows to record the time of permanence on the cylinder. […] The animals were analysed by 2 separate tests at 1-h interval in the same day.

Ube3am-/p+ (AS) mice [2] = test: clasping test in Angelman syndrome mice; format: in vivo, mouse; details: chronic treatment (30 days), 20 mg/kg i.p., 10 weeks of age, vs AS vehicle
Procedure: as §1, §2
Clasping: The clasping test assesses ataxia in mice. Mice were suspended by the base of the tail and their behaviours were recorded for 30 seconds. The time for which the mice clasped their hind limbs was recorded. The time was then scored as follows: 4, 15-30 s, 3, 10-15 s, 2, 5-10 s, 1, 0-5 s and 0.0 s

[3] = biological target: T1, CB1 cannabinoid receptors (Mus musculus, UniProt P47746); details: MF1 mouse brain membranes; extract compared with purified CBDV; cited from earlier work
T1 construct: in both MF1 mouse brain and hCB1-CHO cell membranes; from tissue; host or cells: MF1 mouse brain membranes

Ube3am-/p+ (AS) mice [4] = test: tail suspension test in Angelman syndrome mice; format: in vivo, mouse; details: 20 mg/kg i.p., vs AS vehicle
Procedure: as §1, §2
Tail suspension: The tail suspension test assesses depressive-like behaviour in mice. Mice were individually suspended by the tail on a horizontal bar (50 cm from floor) using adhesive tape placed approximately 4 cm from the tip of the tail. The duration of immobility was recorded in seconds over a period of 6 minutes by a time recorder. Immobility time was defined as the absence of escape-oriented behaviour.

VPA-exposed rats = test: locomotor activity and repetitive behaviours, prenatal VPA model; format: in vivo, rat
Procedure: Pregnant Sprague-Dawley rats (Charles River, Calco, Italy), received a single intraperitoneal injection of 500 mg/kg sodium valproate on the 12.5 day after conception, and control females were injected with physiological saline at the same time. Sodium valproate (Sigma Aldrich, Milan, IT) was dissolved in saline at a concentration of 250 mg/ml.
CBDV was dissolved in ethanol, cremophor and saline (1:1:18). Symptomatic treatment with CBDV at doses of 0.2, 2, 20, and 100 mg/kg/day i.p. was performed starting from PND 34 (early adolescence) till 56 (early adulthood), both in male and female offspring of dams injected with VPA 500 mg/kg (or vehicle) on day 12.5 after conception. At PND 56, a series of behavioural tests was performed in order to assess the effect of chronic CBDV on sociability, social novelty, short-term memory, locomotion and stereotyped/repetitive behaviours.
Locomotor activity and repetitive behaviours: Locomotor activity was recorded in an activity cage for 20 minutes with the aid of Anymaze program (Ugo Basile, Italy). In this period, repetitive behaviours (self-grooming and digging) were measured by an observer blind to the treatment group.

PCP-treated rats = test: novel object recognition test in sub-chronic PCP treated rats; format: in vivo, rat
Procedure: Female hooded-Lister rats were used for this experiment. Rats were housed in groups of 5 under standard laboratory conditions under a 12 hr light: dark cycle, lights on at 0700 hr. Testing was carried out in the light phase.
Rats were randomly assigned to two treatment groups and treated with vehicle, n=20 (distilled water, i.p.) or Phencyclidine hydrochloride (PCP), n=100 (2 mg/kg, i.p. twice daily for 7-days). PCP was dissolved in distilled water. This was followed by a 7-day wash out period before the rats were tested following acute treatment with CBDV, risperidone or vehicle.
Risperidone (0.1 mg/kg) was dissolved in a minimum volume of acetic acid, made up to volume with distilled water and pH adjusted to 6 with 0.1M NaOH and administered via the i.p. route in a volume of 1 ml/kg, 60 min prior to testing.
CBDV at 2, 10 or 20 mg/kg was dissolved in 2:1:17 (Ethanol:Cremofor:Saline 0.9%) and administered via the i.p. route in a volume of 5 ml/kg, 60 min prior to testing.
Rats were allowed to habituate to the empty test box and the behavioural test room environment for 1 h on day 1. Prior to behavioural testing on day 2 rats are given a further 3 min habituation.
Following the 3 min habituation period, the rats are given two 3 min trials (T1 and T2) which are separated by a 1 min inter-trial interval in the home cage during which the objects are changed. Behaviour in all trials was recorded on video for subsequent blind scoring.
In this trial, the animals are allowed to explore two identical objects (A1 and A2) for 3 min.
In this trial, the animals explore a familiar object (A) from T1 and a novel object (B) for 3 min. The familiar object presented during T2 is a duplicate of the object presented in T1 in order to avoid any olfactory trails.
The object exploration is defined by animals licking, sniffing or touching the object with the forepaws whilst sniffing, but not leaning against, turning around, standing or sitting on the object. The exploration time (s) of each object (A, B, familiar and novel) in each trial are recorded using two stopwatches and the following factors are calculated: • Total exploration time of both objects in the acquisition trial (s). • Total exploration time of both objects in the retention trial (s). • Habituation of exploratory activity includes the exploration time, as measured by the number of lines crossed, for both the trials. • Discrimination index (DI), which is calculated as shown below: […]

T1 sequence (P47746 whole entry): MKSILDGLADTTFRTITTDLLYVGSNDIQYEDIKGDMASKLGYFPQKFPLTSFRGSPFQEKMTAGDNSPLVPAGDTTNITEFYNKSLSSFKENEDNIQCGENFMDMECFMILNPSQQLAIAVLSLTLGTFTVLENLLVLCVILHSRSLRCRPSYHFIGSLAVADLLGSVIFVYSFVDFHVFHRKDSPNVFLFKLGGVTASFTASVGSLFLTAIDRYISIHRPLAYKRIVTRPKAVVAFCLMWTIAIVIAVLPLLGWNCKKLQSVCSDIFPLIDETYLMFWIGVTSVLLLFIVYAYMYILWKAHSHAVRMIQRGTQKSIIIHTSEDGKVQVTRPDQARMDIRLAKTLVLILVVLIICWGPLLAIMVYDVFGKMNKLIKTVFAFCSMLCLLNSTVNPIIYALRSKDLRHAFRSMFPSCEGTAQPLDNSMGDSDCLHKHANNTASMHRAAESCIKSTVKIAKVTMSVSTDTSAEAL

C=C(C)[C@@H]1CCC(C)=C[C@H]1c1c(O)cc(CCC)cc1O [CBDV, Cannabidivarin]
body weight (area under the curve) (MeCP2 KO mice; MeCP2 KO mice): significantly rescued | reduction in body weight (MeCP2 KO mice; MeCP2 KO mice, 2, 20 and 200 mg/kg i.p. daily, PND 28-66): partially prevent | body weight (area under the curve) (MeCP2 KO mice; WT controls): without affecting | latency to fall (Ube3am-/p+ (AS) mice [1]): reduced | clasping duration (Ube3am-/p+ (AS) mice [2]): significantly reduced | affinity for CB1 cannabinoid receptors [3]: neither bound with high enough affinity | duration of immobility time (Ube3am-/p+ (AS) mice [4]): significantly reduced | time spent in compulsive self-grooming (VPA-exposed rats; females, 2 and 100 mg/kg): significantly normalize | time spent in compulsive self-grooming (VPA-exposed rats; males, 20 mg/kg): significantly normalize | locomotion increased by VPA (VPA-exposed rats; males, 2, 20 and 100 mg/kg): normalize | discrimination index (DI) (PCP-treated rats; PCP rats, 10 and 20 mg/kg): statistically significant increase | preference between two identical objects, Trial 1 (acquisition) (PCP-treated rats; PCP rats, CBDV 2, 10 or 20 mg/kg i.p., risperidone 0.1 mg/kg i.p., 60 min prior to testing): no real preference | cognitive dysfunction (discrimination between familiar and novel objects, Trial 2) (PCP-treated rats; PCP treated rats, CBDV 10 and 20 mg/kg i.p.): reverse
